Test results taken from patent publication US20240415878A1, “Compositions and Methods for Modulating Mitochondrial Function” (Board of Regents, The University of Texas System, priority 2021, published 2024).

How the values were obtained:
HIF-1α [1] = assay: HIF-1α stabilization in human kidney cell line (HK-2); format: cell-based; settings: HK-2 treated with CoCl2, metabolites 6 hours
HIF-1α [2] = assay: HIF-1α stabilization in COS-7 cells; format: cell-based
Text: HIF-1α is stabilized in Mrs2−/− mice. To examine the intrinsic role of Mrs2, Mrs2^−/− mice were challenged to LPS-induced inflammatory response. It was noticed that there was a barely detectable HIF-1α stabilization in control but a significant HIF-1α protein accumulation following LPS stimulation in Mrs2^−/− hepatocytes (Daw et al., 2020). […] It was envisioned that loss of Mrs2 in hepatocyte mitochondria might control metabolite fluxes that regulates HIF-1α stability under normoxic conditions. HIF-1α is the most commonly studied transcription factor that responds to oxygen tension and its stabilization controls numerous metabolic cascades, including glycolysis and oxidative phosphorylation (Kaelin and Ratcliffe, 2008; Lum et al., 2007; Semenza, 2013). A targeted metabolite screen was conducted to identify whether these metabolites potentially altered in Mrs2^−/− control HIF-1α stabilization. WT hepatocytes were treated with the PHD inhibitor FG-4952 for 6 hours in the presence or absence of metabolites (Buckley et al., 2012). […] Next it was explored whether citric acid mediated HIF-1α destabilization is a hydroxylation dependent mechanism by reconstitution of hydroxylation-dead mutant HIF-1α in COS-7 cells (Yan et al., 2007). […] Next tested the potency of citric acid and sodium citrate was tested. Hepatocytes isolated from WT or Mrs2^−/− mice were treated for 6 hours. […]

HIF-1α [3] = system: HIF-1α
Text: HIF-1α is stabilized in Mrs2−/− mice. To examine the intrinsic role of Mrs2, Mrs2^−/− mice were challenged to LPS-induced inflammatory response. It was noticed that there was a barely detectable HIF-1α stabilization in control but a significant HIF-1α protein accumulation following LPS stimulation in Mrs2^−/− hepatocytes (Daw et al., 2020). […] It was envisioned that loss of Mrs2 in hepatocyte mitochondria might control metabolite fluxes that regulates HIF-1α stability under normoxic conditions. HIF-1α is the most commonly studied transcription factor that responds to oxygen tension and its stabilization controls numerous metabolic cascades, including glycolysis and oxidative phosphorylation (Kaelin and Ratcliffe, 2008; Lum et al., 2007; Semenza, 2013). A targeted metabolite screen was conducted to identify whether these metabolites potentially altered in Mrs2^−/− control HIF-1α stabilization. WT hepatocytes were treated with the PHD inhibitor FG-4952 for 6 hours in the presence or absence of metabolites (Buckley et al., 2012). […] Next it was explored whether citric acid mediated HIF-1α destabilization is a hydroxylation dependent mechanism by reconstitution of hydroxylation-dead mutant HIF-1α in COS-7 cells (Yan et al., 2007). […] Next tested the potency of citric acid and sodium citrate was tested. Hepatocytes isolated from WT or Mrs2^−/− mice were treated for 6 hours. HIF-1α stabilization was less affected by di- or tri-sodium citrate than by citric acid (FIG. 9G). […] The citric acid-mediated HIF-1α destabilization was intact in multiple chemical modalities (FIG. 9H) and the intracellular chelation of Mg^2+ ions suppressed FG-4952-induced HIF-1α stabilization (FIG. 9I). […] Furthermore, COS-7 cells were more sensitive to the HIF-1α stabilizing effect compared to hepatocytes. […] Next HIF-1α abundance was tested in liver tissues harvested from dietary cohorts. HIF-1α protein expression/stabilization was prominent in both Mrs2^−/− and Mrs2^−/− WD, whereas HIF-1α protein was nearly completely absent in WT WD (FIG. 9M). This supports the elevation of HIF-1α protein level as a key mechanism driving transcription changes in Mrs2^−/− WD livers.
Immunoblotting. Crushed tissues were homogenized in lysis buffer (ThermoFisher) on ice for one minute (20-30 strokes) using an automatic Dounce homogenizer set to 2000 RPM. Whole cell lysate was prepared in lysis buffer (Abcam) using 3 sets of 3-second sonication (power level 3) intervals on ice. Protein concentration was estimated using Pierce BCA assay kit and samples were prepared and heated for 90° C. for 5 minutes. Equal amounts of protein were loaded and separated on 4%-12% Bis-Tris polyacrylamide gel (Thermo Fisher Scientific), transferred to a PVDF membrane, blocked for 1-2 h using 5% fat free skim milk, washed and finally, probed with corresponding antibodies as specified below. Antibodies were from Cell Signaling Technology (HIF-1α and Hydroxy HIF-1α dilution 1:3000, MCU dilution 1.5000, MICU1 dilution 1:3000), Abcam Abcam (CPT-1a, CPT-2, OXPHOS cocktail dilution 1:3000), ZYMED Laboratories (β-actin; dilution 1:1,000), and Amersham (secondary antibodies conjugated with peroxidase). Development was done using X-ray film using a series of timed exposures and Image J was used for densitometric analysis on scanned film images.

Mrs2 [4] = biological target: T1, Mrs2 (Mus musculus, UniProt Q5NCE8); assay: Mrs2 inhibition in intact hepatocytes loaded with Mag-Green-AM, confocal, L-lactate stimulation; format: cell-based, murine
T1 construct: endogenous in cells; host or cells: primary murine hepatocytes (C57BL/6J mice)
T1 sequence (Q5NCE8 54-434): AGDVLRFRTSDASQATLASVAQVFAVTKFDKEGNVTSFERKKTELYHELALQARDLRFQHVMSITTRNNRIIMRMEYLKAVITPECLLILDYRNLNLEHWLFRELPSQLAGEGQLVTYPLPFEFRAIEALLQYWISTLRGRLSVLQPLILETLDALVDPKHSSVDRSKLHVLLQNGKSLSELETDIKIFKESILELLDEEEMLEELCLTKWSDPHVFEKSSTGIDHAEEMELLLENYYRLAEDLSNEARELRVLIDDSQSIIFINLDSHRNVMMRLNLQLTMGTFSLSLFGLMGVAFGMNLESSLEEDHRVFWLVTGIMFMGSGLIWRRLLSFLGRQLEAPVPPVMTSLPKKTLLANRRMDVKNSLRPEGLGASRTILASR
Protocol: Bacterial CorA forms a pentameric complex that selectively drives Mg2+ uptake in an electrogenic manner. […] Mrs2 is the eukaryotic homologue of CorA and contains two transmembrane domains with a well-conserved F/Y-G-M-N motif; therefore, CorA blockers were tested to determine if they alter Mrs2-mediated mMg^2+ uptake (Moomaw and Maguire, 2008). Digitonin permeabilized hepatocytes were utilized to measure the inhibitory effect and determine its IC50. Permeabilized cells were treated with CPACC followed by a 1 mM bolus of MgCl2 (FIG. 10B). A 1 mM Mg^2+ bolus was added after baseline recording, and the extramitochondrial Mg^2+ clearance was used as a read-out for Mrs2-mediated mMg^2+ uptake using Mag-Green as a Mg^2+ indicator. […] We next investigated Mrs2 inhibition in intact hepatocytes loaded with Mag-Green-AM. […] Next CPACC was examined to determine if it had any effect on MCU-mediated mCa^2+ uptake in permeabilized cells. […] The availability of the compound to intact cells was measured using graphite furnace atomic absorption spectroscopy (GFAAS) and bicinchoninic acid in parallel. […] Encouraged by the potent inhibitory effect of CPACC and cellular permeability, we next measured the cytotoxicity of CPACC in cells. […]
Evaluation of dose dependent Mrs2 inhibition by confocal live cell imaging system. […] Data was quantified using Leica Application Suite X.

Mrs2 [5] = biological target: T1, Mrs2; assay: Mrs2-mediated mMg2+ uptake in digitonin permeabilized hepatocytes (Mag-Green, extramitochondrial Mg2+ clearance); format: cell-based, murine; settings: permeabilized cell system
Protocol: Bacterial CorA forms a pentameric complex that selectively drives Mg2+ uptake in an electrogenic manner. […] Mrs2 is the eukaryotic homologue of CorA and contains two transmembrane domains with a well-conserved F/Y-G-M-N motif; therefore, CorA blockers were tested to determine if they alter Mrs2-mediated mMg^2+ uptake (Moomaw and Maguire, 2008). Digitonin permeabilized hepatocytes were utilized to measure the inhibitory effect and determine its IC50. Permeabilized cells were treated with CPACC followed by a 1 mM bolus of MgCl2 (FIG. 10B). A 1 mM Mg^2+ bolus was added after baseline recording, and the extramitochondrial Mg^2+ clearance was used as a read-out for Mrs2-mediated mMg^2+ uptake using Mag-Green as a Mg^2+ indicator. […] We next investigated Mrs2 inhibition in intact hepatocytes loaded with Mag-Green-AM. […] Next CPACC was examined to determine if it had any effect on MCU-mediated mCa^2+ uptake in permeabilized cells. […] The availability of the compound to intact cells was measured using graphite furnace atomic absorption spectroscopy (GFAAS) and bicinchoninic acid in parallel.
Spectrofluorimetric measurement of mitochondrial Mg^2+ and Ca^2+ dynamics and citrate mediated MagGreen fluorescence quenching. Fluorescence measurements were conducted in a multiwavelength excitation dual wavelength emission spectrofluorometer (Delta RAM, PTI, HORIBA). […]

O=C(O)CC(O)(CC(=O)O)C(=O)O [citric acid]
HIF-1α destabilizing activity (HIF-1α [1]): replicates the observations in hepatocytes
constitutively stabilized (hydroxylation-dead) HIF-1α mutant (HIF-1α [2]): unaffected
FG-4592 dependent HIF-1α stabilization (HIF-1α [2]; 10 mM): completely blunted
response of hepatocytes from Mrs2^−/− mice to the destabilizing effect (HIF-1α [3]): partially resistant
HIF-1α destabilizing effect in homogenate (HIF-1α [3]; FG-4592 treated WT hepatocyte homogenate): partly maintained
time course of HIF-1α destabilization (HIF-1α [3]; FG-4592 treated hepatocytes): very rapid and robust
effect on HIF-1α stabilized by PHD inhibitor (HIF-1α [3]; WT hepatocytes, FG-4952, 6 hours): destabilized HIF-1α
concentration at which HIF-1α destabilization was observed (HIF-1α [3]; WT hepatocytes, PHD inhibitor, 6 hours): ≥ 6 mM

N.N.N.N.N.N.[Cl-].[Cl-].[Cl-].[Co+3] [cobalt(III)hexaammine, Hexaamminecobalt (III) chloride, reference compound]
effect on Mrs2 in intact hepatocytes (Mrs2 [4]): absent
inhibitory effect on Mrs2 activity (Mrs2 [5]): limited inhibition
